Test results from the supplement of paper PMC10307832.

How the values were obtained:
Assay in all cases: relative viability (nuclei count vs DMSO), 5 days (fraction); higher = more cells survive
[1] = compound: O=S(=O)(c1ccccc1)N(CC(F)(F)F)c1ccc(C(O)(C(F)(F)F)C(F)(F)F)cc1 + N=C(N)NC(=N)NCCc1ccccc1 [Phenformin] (partner 250 µM)
Procedure, shortened: (§1)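 Lung cancer cell lines were seeded in 1536-well plates and dosed by pin tool the next day, with either a single drug or a fixed anchor-drug dose combined with five library-drug doses (not always all listed) spaced in √10 steps. Five days later, one step fixed the cells and stained their nuclei (final 0.05% Triton X-100, 1% formaldehyde, 1 ug/ml Hoechst), and nuclei were counted on 4× images. Relative viability is the nuclei count in treated wells divided by the count in vehicle wells, and each value is the median of duplicate plates.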

[2] = compound: C1=CC2=C(C=CC(=C2)C=C3C(=O)NC(=NCC4=CC=CS4)S3)N=C1 [RO-3306] + COc1cc2c(Oc3ccc(NC(=O)C4(C(=O)Nc5ccc(F)cc5)CC4)cc3F)ccnc2cc1OCCCN1CCOCC1 [Foretinib] (partner 0.25 µM)
Procedure, shortened: as §1

[3] = compound: O=S(=O)(c1ccccc1)N(CC(F)(F)F)c1ccc(C(O)(C(F)(F)F)C(F)(F)F)cc1 + CS(=O)(=O)CCNCc1ccc(-c2ccc3ncnc(Nc4ccc(OCc5cccc(F)c5)c(Cl)c4)c3c2)o1 [Lapatinib] (partner 2 µM)
Procedure, shortened: as §1

[4] = compound: O=S(=O)(c1ccccc1)N(CC(F)(F)F)c1ccc(C(O)(C(F)(F)F)C(F)(F)F)cc1 + O=C(CCCCCCC(=O)Nc1ccccc1)NO [Vorinostat] (partner 1 µM)
Procedure, shortened: as §1

[5] = compound: O=S(=O)(c1ccccc1)N(CC(F)(F)F)c1ccc(C(O)(C(F)(F)F)C(F)(F)F)cc1 + Nc1nc2[nH]cc(CCc3ccc(C(=O)N[C@@H](CCC(=O)O)C(=O)O)cc3)c2c(=O)[nH]1 [Pemetrexed] (partner 0.2 µM)
Procedure, shortened: as §1

UMC-11
relative viability ([1]; first compound 0.8 µM): 0.315
relative viability ([1]; first compound 2.53 µM): 0.295
relative viability ([1]; first compound 8 µM): 0.315
relative viability ([2]; first compound 0.01 µM): 0.999
relative viability ([2]; first compound 0.03162 µM): 0.772
relative viability ([2]; first compound 0.1 µM): 1.05
relative viability ([2]; first compound 0.3162 µM): 1.21
relative viability ([2]; first compound 1 µM): 1.16
relative viability ([3]; first compound 0.8 µM): 1.19
relative viability ([3]; first compound 2.53 µM): 0.966
relative viability ([3]; first compound 8 µM): 1.22
relative viability ([4]; first compound 0.8 µM): 0.381
relative viability ([4]; first compound 2.53 µM): 0.357
relative viability ([4]; first compound 8 µM): 0.396
relative viability ([5]; first compound 0.8 µM): 0.786
relative viability ([5]; first compound 2.53 µM): 0.736
relative viability ([5]; first compound 8 µM): 0.852
